For the assay, the system named is MOLM-13 cells. The assay is described as follows: MOLM-13 Cell Proliferation Assay (indicator of DHODH inhibition). Particulars: Homo sapiens, 72 Hours of culture, CellTiter-Glo, no uridine. The assay is classed as cell-based. In a few lines:
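Low-passage MOLM-13 cells (10^4/well) in RPMI 1640 + 10% FBS exposed to compound (0.5% DMSO final) for 72 h at 37 °C, 5% CO2. Viability read by CellTiter-Glo luminescence; growth reflects de novo pyrimidine synthesis dependent on DHODH.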

Each structure is given as a SMILES string.

29 molecules from US20250186437A1, “CARBOLINE COMPOUNDS AND USE THEREOF” (PTC Therapeutics, Inc., priority 2021, published 2025) can be followed below.

`Cc1ccc(C2c3[nH]c4ccc(F)c(F)c4c3CCN2c2ncc(F)cn2)cc1` (centres unmarked) [Compound 82, 5,6-difluoro-2-(5-fluoropyrimidin-2-yl)-1-(4-methylphenyl)-2,3,4,9-tetrahydro-1H-pyrido[3,4-b]indole] yielded an IC50 of 86.5 nM.
In the case of `Cc1nc(N2CCc3c([nH]c4cc(F)c(Cl)cc34)C2c2cccc(F)c2F)nc(C)c1C` (centres unmarked) [Compound 171, 6-chloro-1-(2,3-difluorophenyl)-7-fluoro-2-(4,5,6-trimethylpyrimidin-2-yl)-2,3,4,9-tetrahydro-1H-pyrido[3,4-b]indole], inhibition was half-maximal at 5 nM (IC50).
Next, `Cc1ccc(C2c3[nH]c4cc(F)c(Cl)cc4c3CCN2c2nc(Cl)cc(Cl)n2)cc1` (centres unmarked) [Compound 16, 6-chloro-2-(4,6-dichloropyrimidin-2-yl)-7-fluoro-1-(4-methylphenyl)-2,3,4,9-tetrahydro-1H-pyrido[3,4-b]indole]: 1.8 nM.
Next, `Cc1nc(N2CCc3c([nH]c4ccc(Cl)cc34)[C@@H]2c2ccc(N3CCOCC3)nc2)nc(C(F)(F)F)n1` [Compound 465, (1S)-6-chloro-2-[4-methyl-6-(trifluoromethyl)-1,3,5-triazin-2-yl]-1-[6-(morpholin-4-yl)pyridin-3-yl]-2,3,4,9-tetrahydro-1H-pyrido[3,4-b]indole]: 0.6 nM; `Cc1ccc([C@H]2c3[nH]c4ccc(Cl)cc4c3CCN2c2nc(C#N)cc(C(F)(F)F)n2)c(F)c1F` [Compound 416, 2-[(1S)-6-chloro-1-(2,3-difluoro-4-methylphenyl)-1,3,4,9-tetrahydro-2H-pyrido[3,4-b]indol-2-yl]-6-(trifluoromethyl)pyrimidine-4-carbonitrile]: 2.7 nM; `OCCCc1ccc(C2c3[nH]c4cc(F)c(Cl)cc4c3CCN2c2nccc(C(F)(F)F)n2)cc1` (centres unmarked) [Compound 156, 3-(4-{6-chloro-7-fluoro-2-[4-(trifluoromethyl)pyrimidin-2-yl]-2,3,4,9-tetrahydro-1H-pyrido[3,4-b]indol-1-yl}phenyl)propan-1-ol]: 4 nM.
Next, `Clc1ccc2[nH]c3c(c2c1)CCN(c1nccc(-c2ccccc2)n1)C3c1cnc(N2CCOCC2)nc1` (centres unmarked) [Compound 475, 6-chloro-1-[2-(morpholin-4-yl)pyrimidin-5-yl]-2-(4-phenylpyrimidin-2-yl)-2,3,4,9-tetrahydro-1H-pyrido[3,4-b]indole]: 116 nM; `Fc1c(Br)ccc(C2c3[nH]c4ccc(Cl)cc4c3CCN2c2nccc(C(F)(F)F)n2)c1F` (centres unmarked) [Compound 270, 1-(4-bromo-2,3-difluorophenyl)-6-chloro-2-[4-(trifluoromethyl)pyrimidin-2-yl]-2,3,4,9-tetrahydro-1H-pyrido[3,4-b]indole]: 0.3 nM; `CN(C)CCNc1ncc([C@H]2c3[nH]c4ccc(Cl)cc4c3CCN2c2nc(C(F)(F)F)nc(C(F)(F)F)n2)cn1` [Compound 531, N^2-(5-{(1S)-2-[4,6-bis(trifluoromethyl)-1,3,5-triazin-2-yl]-6-chloro-2,3,4,9-tetrahydro-1H-pyrido[3,4-b]indol-1-yl}pyrimidin-2-yl)-N^1,N^1-dimethylethane-1,2-diamine]: 5 nM.
On to `CN(C)c1ncc(C2c3[nH]c4ccc(Cl)c(F)c4c3CCN2c2nccc(C(F)(F)F)n2)cn1` (centres unmarked) [Compound 178, 5-{6-chloro-5-fluoro-2-[4-(trifluoromethyl)pyrimidin-2-yl]-2,3,4,9-tetrahydro-1H-pyrido[3,4-b]indol-1-yl}-N,N-dimethylpyrimidin-2-amine], for which the IC50 came to 3.4 nM.
Next, `FC(F)(F)c1ccnc(N2CCc3c([nH]c4ccc(-n5cccn5)cc34)C2c2cnc(N3CCOCC3)nc2)n1` (centres unmarked) [Compound 301, 1-[2-(morpholin-4-yl)pyrimidin-5-yl]-6-(1H-pyrazol-1-yl)-2-[4-(trifluoromethyl)pyrimidin-2-yl]-2,3,4,9-tetrahydro-1H-pyrido[3,4-b]indole]: 23.9 nM.
The molecule `Fc1ccc(C2c3[nH]c4ccc(Cl)cc4c3CCN2c2nccc(C(F)(F)F)n2)cc1` (centres unmarked) [Compound 422, 6-chloro-1-(4-fluorophenyl)-2-[4-(trifluoromethyl)pyrimidin-2-yl]-2,3,4,9-tetrahydro-1H-pyrido[3,4-b]indole] returned an IC50 of 7.1 nM.
The figure for `Cc1nc(N2CCc3c([nH]c4ccc(Cl)c(F)c34)C2c2cccc(F)c2F)nc(C)c1F` (centres unmarked) [Compound 117, 6-chloro-1-(2,3-difluorophenyl)-5-fluoro-2-(5-fluoro-4,6-dimethylpyrimidin-2-yl)-2,3,4,9-tetrahydro-1H-pyrido[3,4-b]indole] is 2 nM; for `Cc1ccc(C2c3[nH]c4ccc(F)cc4c3CCN2c2nc(C(F)(F)F)cc(C(F)(F)F)n2)c(F)c1F` (centres unmarked) [Compound 490, 2-[4,6-bis(trifluoromethyl)pyrimidin-2-yl]-1-(2,3-difluoro-4-methylphenyl)-6-fluoro-2,3,4,9-tetrahydro-1H-pyrido[3,4-b]indole] it is 2.8 nM.
Take `Cc1ccnc(N2CCc3c([nH]c4cc(F)c(Cl)cc34)C2c2ccc(C#N)cc2)n1` (centres unmarked) [Compound 61, 4-[6-chloro-7-fluoro-2-(4-methylpyrimidin-2-yl)-2,3,4,9-tetrahydro-1H-pyrido[3,4-b]indol-1-yl]benzonitrile]: inhibition was half-maximal at 35.2 nM (IC50).
The figure for `Cc1nc(N2CCc3c([nH]c4ccc(Cl)cc34)[C@@H]2c2cnc(N3CCOCC3)nc2)nc(C#N)c1F` [Compound 421, 2-{(1S)-6-chloro-1-[2-(morpholin-4-yl)pyrimidin-5-yl]-1,3,4,9-tetrahydro-2H-pyrido[3,4-b]indol-2-yl}-5-fluoro-6-methylpyrimidine-4-carbonitrile] is 1.7 nM.
The figure for `Clc1ccc2[nH]c3c(c2c1)CCN(c1ncc(-c2ccccc2)cn1)[C@H]3c1cnc(N2CCOCC2)nc1` [Compound 472, (1S)-6-chloro-1-[2-(morpholin-4-yl)pyrimidin-5-yl]-2-(5-phenylpyrimidin-2-yl)-2,3,4,9-tetrahydro-1H-pyrido[3,4-b]indole] is 4.1 nM; for `Cc1ccc(C2c3[nH]c4ccc(C)c(F)c4c3CCN2c2nccc(C(F)(F)F)n2)cc1` (centres unmarked) [Compound 174, 5-fluoro-6-methyl-1-(4-methylphenyl)-2-[4-(trifluoromethyl)pyrimidin-2-yl]-2,3,4,9-tetrahydro-1H-pyrido[3,4-b]indole] it is 7.8 nM; for `Cc1nc(N2CCc3c([nH]c4ccc(Cl)cc34)C2c2ccc(C)c(F)c2F)nc(C(F)(F)F)n1` (centres unmarked) [Compound 438, 6-chloro-1-(2,3-difluoro-4-methylphenyl)-2-[4-methyl-6-(trifluoromethyl)-1,3,5-triazin-2-yl]-2,3,4,9-tetrahydro-1H-pyrido[3,4-b]indole] it is 0.6 nM.
`C=Cc1ccc(C2c3[nH]c4cc(F)c(Cl)cc4c3CCN2c2ncc(F)cn2)cc1` (centres unmarked) [Compound 79, 6-chloro-1-(4-ethenylphenyl)-7-fluoro-2-(5-fluoropyrimidin-2-yl)-2,3,4,9-tetrahydro-1H-pyrido[3,4-b]indole] showed an IC50 of 20.7 nM.
The figure for `Cc1ccc(C2c3[nH]c4cc(F)c(Cl)cc4c3CCN2c2ncc(C)cn2)cc1` (centres unmarked) [Compound 134, 6-chloro-7-fluoro-1-(4-methylphenyl)-2-(5-methylpyrimidin-2-yl)-2,3,4,9-tetrahydro-1H-pyrido[3,4-b]indole] is 21.7 nM.
On to `Fc1c(Cl)ccc2[nH]c3c(c12)CCN(c1nccc(C(F)(F)F)n1)C3c1cncnc1` (centres unmarked) [Compound 191, 6-chloro-5-fluoro-1-(pyrimidin-5-yl)-2-[4-(trifluoromethyl)pyrimidin-2-yl]-2,3,4,9-tetrahydro-1H-pyrido[3,4-b]indole], for which the half-maximal inhibitory concentration (IC50) was determined as 20.7 nM.
Next, `N#Cc1ccc(C2c3[nH]c4ccc(Cl)cc4c3CCN2c2nccc(C(F)(F)F)n2)cc1` (centres unmarked) [Compound 447, 4-{6-chloro-2-[4-(trifluoromethyl)pyrimidin-2-yl]-2,3,4,9-tetrahydro-1H-pyrido[3,4-b]indol-1-yl}benzonitrile]: 4.8 nM; `Cc1cc(C#N)nc(N2CCc3c([nH]c4ccc(Cl)c(F)c34)C2c2ccc(F)cc2)n1` (centres unmarked) [Compound 111, 2-[6-chloro-5-fluoro-1-(4-fluorophenyl)-1,3,4,9-tetrahydro-2H-pyrido[3,4-b]indol-2-yl]-6-methylpyrimidine-4-carbonitrile]: 8.1 nM; `Cc1ccc(C2c3[nH]c4ccc(Cl)cc4c3CCN2c2nccc(C(F)(F)F)n2)cc1F` (centres unmarked) [Compound 354, 6-chloro-1-(3-fluoro-4-methylphenyl)-2-[4-(trifluoromethyl)pyrimidin-2-yl]-2,3,4,9-tetrahydro-1H-pyrido[3,4-b]indole]: 2.2 nM.
`NS(=O)(=O)c1ccc(C2c3[nH]c4ccc(Cl)c(F)c4c3CCN2c2nccc(C(F)(F)F)n2)cc1` (centres unmarked) [Compound 150, 4-{6-chloro-5-fluoro-2-[4-(trifluoromethyl)pyrimidin-2-yl]-2,3,4,9-tetrahydro-1H-pyrido[3,4-b]indol-1-yl}benzene-1-sulfonamide] yielded a half-maximal inhibitory concentration (IC50) of 8.9 nM.
Next, `CN1CCN(c2ccc([C@H]3c4[nH]c5ccc(Cl)cc5c4CCN3c3ncnc(C(F)(F)F)n3)cn2)CC1` [Compound 491, (1S)-6-chloro-1-[6-(4-methylpiperazin-1-yl)pyridin-3-yl]-2-[4-(trifluoromethyl)-1,3,5-triazin-2-yl]-2,3,4,9-tetrahydro-1H-pyrido[3,4-b]indole]: 2.2 nM.
Turning to `CSc1ncc(C2c3[nH]c4ccc(Cl)cc4c3CCN2c2nc(C)nc(C)n2)cn1` (centres unmarked) [Compound 346, 6-chloro-2-(4,6-dimethyl-1,3,5-triazin-2-yl)-1-[2-(methylsulfanyl)pyrimidin-5-yl]-2,3,4,9-tetrahydro-1H-pyrido[3,4-b]indole], the concentration for half-maximal inhibition (IC50) is 5.2 nM.
Next, `Cc1ccc([C@H]2c3[nH]c4ccc(Cl)cc4c3CCN2c2nc(C(F)F)nc(C(F)(F)F)n2)c(F)c1F` [Compound 510, (1S)-6-chloro-1-(2,3-difluoro-4-methylphenyl)-2-[4-(difluoromethyl)-6-(trifluoromethyl)-1,3,5-triazin-2-yl]-2,3,4,9-tetrahydro-1H-pyrido[3,4-b]indole]: 0.1 nM.
